In general, IC50 refers to the concentration needed to halve the response being measured.

Where a name gives a salt, the structure may show the parent alone.

T1 sequence (P46095 whole entry): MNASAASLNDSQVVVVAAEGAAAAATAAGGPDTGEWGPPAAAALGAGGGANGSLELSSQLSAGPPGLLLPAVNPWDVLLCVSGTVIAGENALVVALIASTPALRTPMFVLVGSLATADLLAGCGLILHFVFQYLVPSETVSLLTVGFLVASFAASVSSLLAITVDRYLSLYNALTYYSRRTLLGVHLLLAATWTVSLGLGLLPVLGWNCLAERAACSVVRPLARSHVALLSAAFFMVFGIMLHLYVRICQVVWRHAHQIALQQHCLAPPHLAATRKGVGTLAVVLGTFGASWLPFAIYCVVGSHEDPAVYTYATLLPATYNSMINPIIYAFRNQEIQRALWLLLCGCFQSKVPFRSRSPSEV

One experiment has as its target T1, GPR6 receptor (Homo sapiens, UniProt P46095).
T1 construct: expressed in transfected cells
Briefly: Inhibition of cAMP Activity of GPR6 In Vitro Assay (CHO-K1 cells, HTRF cAMP). Type of experiment: cell-based.
Settings: not given
In outline:
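CHO-K1 cells with doxycycline-induced (1 μg/ml, 20 h) GPR6 treated with compounds 45 min at 37 °C in Ringer's buffer (pH 7.4) with 0.5% fatty acid free BSA. Constitutive cAMP measured by Lance HTRF Ultra cAMP; IC50 from four-parameter logistic fit.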
Background: In TR-FRET formats the signal depends on donor and acceptor labels being close together.
For the compound `COc1ccc(OC2CCN(c3nc4c(N5CCOCC5)nccc4nc3NC3CC3)CC2)c(F)c1` [Cpd 606, N-cyclopropyl-3-(4-(2-fluoro-4-methoxyphenoxy)piperidin-1-yl)-5-morpholinopyrido[3,4-b]pyrazin-2-amine, 2,2,2-trifluoroacetic acid salt], the IC50 was determined as 717 nM.

Staying with this experiment, now noted: compounds of Compound Table 1; inhibition of constitutive cAMP activity of GPR6 expressed in CHO-K1 cells; approximate IC50; read-out: IC50.
On to “4-((1-(2-(cyclopropylamino)pyrido[3,4-b]pyrazin-3-yl)piperidin-4-yl)oxy)-3-fluorophenol, 2,2,2-trifluoroacetic acid salt [Cpd 615]”, for which the IC50 is 88 nM.
The same measure, in the same setting: the same measure for “N-cyclopropyl-3-(4-(4-ethoxyphenoxy)piperidin-1-yl)pyrido[3,4-b]pyrazin-2-amine, 2,2,2-trifluoroacetic acid salt [Cpd 601]”: 22 nM; for “(S)-3-(cyclopropylamino)-2-(4-((2,4-difluorophenyl)fluoromethyl)piperidin-1-yl)pyrido[3,4-b]pyrazine-7-carbonitrile [Cpd 550]”: 17 nM; for “(4-chloro-3-methylphenyl)(4-(3-(pyridin-3-ylamino)quinoxalin-2-yl)piperazin-1-yl)methanone, 2,2,2-trifluoroacetic acid salt [Cpd 230]”: 800 nM.
“N-cyclopropyl-3-(4-(4-methoxyphenoxy)piperidin-1-yl)pyrido[3,4-b]pyrazin-2-amine [Cpd 552]”: the IC50 stood at 24 nM.
The same measure, in the same setting: the same measure for `Cc1cccc(CN2CCN(c3nc4cccnc4nc3NC3CC3)CC2)c1` [Cpd 2, N-cyclopropyl-2-(4-(3-methylbenzyl)piperazin-1-yl)pyrido[2,3-b]pyrazin-3-amine, 2,2,2-trifluoroacetic acid salt]: 45400 nM.
Same read-out and setting: the result for “(2-chloro-6-fluorophenyl)(1-(2-(cyclopropylamino)pyrido[3,4-b]pyrazin-3-yl)piperidin-4-yl)methanone [Cpd 575]” reads 6750 nM; that for “3-fluoro-4-((1-(3-(isopropylamino)pyrazino[2,3-d]pyridazin-2-yl)piperidin-4-yl)oxy)phenol, 2,2,2-trifluoroacetic acid salt [Cpd 648]”, 65 nM; that for “2-(cyclopropylamino)-3-(4-tosylpiperazin-1-yl)quinoxaline-6-carbonitrile [Cpd 240]”, 4590 nM.
On the same count and under the same terms, the result for `O=C(c1cc(Cl)ccc1Cl)N1CCN(c2nc3ccccc3nc2NC2CCCC2)CC1` [Cpd 39, (4-(3-(cyclopentylamino)quinoxalin-2-yl)piperazin-1-yl)(2,5-dichlorophenyl)methanone, 2,2,2-trifluoroacetic acid salt] reads 6150 nM; that for “2-(cyclobutylamino)-3-(4-(2,5-dichlorobenzyl)piperazin-1-yl)quinoxaline-6-carbonitrile, 2,2,2-trifluoroacetic acid salt [Cpd 336]”, 960 nM; that for `Clc1ccc(Cl)c(CN2CCN(c3nc4ccccc4nc3NCC3CC3)CC2)c1` [Cpd 42, N-(cyclopropylmethyl)-3-(4-(2,5-dichlorobenzyl)piperazin-1-yl)quinoxalin-2-amine, 2,2,2-trifluoroacetic acid salt], 3160 nM.
As to “(R)-7-chloro-N-cyclopropyl-3-(4-((2,4-difluorophenyl)fluoromethyl)piperidin-1-yl)pyrido[3,4-b]pyrazin-2-amine, 2,2,2-trifluoroacetic acid salt [Cpd 523]”, the IC50 is 340 nM.
Still for that read-out and setting: the result for `COc1ccc(Nc2nc3ccccc3nc2N2CCN(Cc3cccc(Cl)c3)CC2)cc1` [Cpd 31, 3-(4-(3-chlorobenzyl)piperazin-1-yl)-N-(4-methoxyphenyl)quinoxalin-2-amine, 2,2,2-trifluoroacetic acid salt] reads 6140 nM; that for `Cc1cc(Br)ccc1C(=O)N1CCN(c2nc3ccccc3nc2NC2CC2)CC1` [Cpd 122, (4-bromo-2-methylphenyl)(4-(3-(cyclopropylamino)quinoxalin-2-yl)piperazin-1-yl)methanone, 2,2,2-trifluoroacetic acid salt], 10300 nM; that for “3-(cyclopropylamino)-2-(4-(2,5-dichlorobenzyl)piperazin-1-yl)quinoxaline-5-carbonitrile, 2,2,2-trifluoroacetic acid salt [Cpd 248]”, 1850 nM.
For the compound “2-(cyclopropylamino)-3-(4-(phenylsulfonyl)piperazin-1-yl)quinoxaline-6-carbonitrile [Cpd 162]”, the IC50 stood at 4630 nM.
Turning to “N-cyclopropyl-3-(4-(2-fluoro-4-(methylthio)phenoxy)piperidin-1-yl)pyrazino[2,3-d]pyridazin-2-amine, 2,2,2-trifluoroacetic acid salt [Cpd 618]”, the IC50 came to 12 nM.
Still for that read-out and setting: the same measure for “3-(4-(4-chlorobenzyl)piperidin-1-yl)-N-cyclopropylpyrido[3,4-b]pyrazin-2-amine, 2,2,2-trifluoroacetic acid salt [Cpd 424]”: 310 nM; for “3-(1-(7-bromo-2-(cyclopropylamino)pyrido[3,4-b]pyrazin-3-yl)piperidine-4-carbonyl)-4-fluorobenzonitrile [Cpd 602]”: 146 nM.
The same measure, in the same setting: the same measure for “N-ethyl-3-(4-(2-fluoro-4-methoxyphenoxy)piperidin-1-yl)pyrido[3,4-b]pyrazin-2-amine, 2,2,2-trifluoroacetic acid salt [Cpd 622]”: 29 nM; for `COc1ccc(Br)c(C(=O)N2CCN(c3nc4ccccc4nc3NC3CC3)CC2)c1` [Cpd 85, (2-bromo-5-methoxyphenyl)(4-(3-(cyclopropylamino)quinoxalin-2-yl)piperazin-1-yl)methanone, 2,2,2-trifluoroacetic acid salt]: 7550 nM.
“N-cyclopropyl-2-(4-(2,5-difluorobenzyl)piperazin-1-yl)pyrido[3,4-b]pyrazin-3-amine, 2,2,2-trifluoroacetic acid salt [Cpd 292]”: the IC50 amounted to 56 nM.
On the same count and under the same terms, the result for “(2-chloro-4-fluorophenyl)(4-(2-(cyclopropylamino)pyrido[3,4-b]pyrazin-3-yl)piperazin-1-yl)methanone, 2,2,2-trifluoroacetic acid salt [Cpd 363]” reads 230 nM.
Same read-out and setting: the same measure for `Cc1cc(C(=O)N2CCN(c3nc4ccccc4nc3NC3CC3)CC2)no1` [Cpd 98, (4-(3-(cyclopropylamino)quinoxalin-2-yl)piperazin-1-yl)(5-methylisoxazol-3-yl)methanone]: 3210 nM; for “N2-cyclopropyl-3-(4-(2-fluoro-4-methoxyphenoxy)piperidin-1-yl)-N5,N5-dimethylpyrido[3,4-b]pyrazine-2,5-diamine, 2,2,2-trifluoroacetic acid salt [Cpd 607]”: 43 nM.
Still for that read-out and setting: the result for `Clc1cccc(CN2CCN(c3nc4ccccc4nc3NC3CC3)CC2)c1` [Cpd 5, 3-(4-(3-chlorobenzyl)piperazin-1-yl)-N-cyclopropylquinoxalin-2-amine, 2,2,2-trifluoroacetic acid salt] reads 40600 nM; that for “N-cyclopropyl-3-(4-(4-fluorobenzyl)piperidin-1-yl)pyrido[3,4-b]pyrazin-2-amine, 2,2,2-trifluoroacetic acid salt [Cpd 421]”, 8390 nM.
As for “2-(cyclopropylamino)-3-(4-(2,4-difluorobenzyl)piperidin-1-yl)quinoxaline-6-carbonitrile, 2,2,2-trifluoroacetic acid salt [Cpd 416]”, the IC50 turned out to be 1510 nM.
Same read-out and setting: the same measure for “3-(4-((2-cyanophenyl)sulfonyl)piperazin-1-yl)-2-(cyclopropylamino)quinoxaline-6-carbonitrile, 2,2,2-trifluoroacetic acid salt [Cpd 252]”: 2540 nM.
Still for that read-out and setting: the result for “(4-chlorophenyl)(4-(3-(pyridin-3-ylamino)quinoxalin-2-yl)piperazin-1-yl)methanone, 2,2,2-trifluoroacetic acid salt [Cpd 223]” reads 5620 nM; that for “3-(4-(4-chloro-3-methylbenzyl)piperazin-1-yl)-N-cyclopropylquinoxalin-2-amine, 2,2,2-trifluoroacetic acid salt [Cpd 194]”, 3640 nM; that for “3-(4-((5-chloro-2-fluorophenyl)difluoromethyl)piperidin-1-yl)-N-cyclopropylpyrido[3,4-b]pyrazin-2-amine [Cpd 539]”, 770 nM.
The same measure, in the same setting: the result for “(2-chloro-5-fluorophenyl)(1-(2-(cyclopropylamino)pyrido[3,4-b]pyrazin-3-yl)piperidin-4-yl)methanone, 2,2,2-trifluoroacetic acid salt [Cpd 567]” reads 5780 nM; that for “3-(4-(5-cyano-2-(dimethylcarbamoyl)benzoyl)piperidin-1-yl)-2-(cyclopropylamino)-N,N-dimethylpyrido[3,4-b]pyrazine-7-carboxamide [Cpd 596]”, 26 nM.
Consider “3-(4-(2,5-dichlorobenzyl)piperazin-1-yl)-N-(pyrimidin-4-yl)quinoxalin-2-amine, 2,2,2-trifluoroacetic acid salt [Cpd 174]”, for which the half-maximal inhibitory concentration (IC50) worked out at 1670 nM.
Consider `CS(=O)(=O)c1ccc(C(=O)N2CCN(c3nc4ccccc4nc3NC3CC3)CC2)c(Cl)c1` [Cpd 67, (2-chloro-4-(methylsulfonyl)phenyl)(4-(3-(cyclopropylamino)quinoxalin-2-yl)piperazin-1-yl)methanone], for which the IC50 was 1030 nM.
Still for that read-out and setting: the result for “3-(4-(2,5-difluorobenzyl)piperazin-1-yl)-2-((3,3,3-trifluoropropyl)amino)quinoxaline-6-carbonitrile, 2,2,2-trifluoroacetic acid salt [Cpd 400]” reads 390 nM; that for “(S)—N-cyclopropyl-3-(4-((2,4-difluorophenyl)fluoromethyl)piperidin-1-yl)-7-methylpyrido[3,4-b]pyrazin-2-amine, 2,2,2-trifluoroacetic acid salt [Cpd 502]”, 1430 nM.
